Laboratory results taken from publication PMC10618370, “Mur ligase F as a new target for the flavonoids quercitrin, myricetin, and (–)-epicatechin” (Journal of Computer-Aided Molecular Design, 2023).
Like-named read-outs stand apart in the source and are kept apart here.

Key:
E. coli MurE = E. coli MurE (Escherichia coli, UniProt P22188); experiment: MurE inhibition assay (Malachite green); assay type: biochemical; settings: 0.25 h, read-out: RA (%) @ 100 µM MurE
Method: (§1) Inhibition of the Mur ligases was determined using the Malachite green assay, with slight modifications. […] In all cases, the final concentration of DMSO was 5% (v/v).
(§2) After incubation for 15 min at 37 °C, the enzyme reaction was terminated by the addition of 100 µM Biomol green reagent®, and the absorbance was measured at 650 nm after 5 min. Experiments to determine the RA run in triplicate. Residual activities were calculated with respect to control assays without the tested compounds, but with the 5% DMSO carrier. The IC50 values were determined by measuring the residual activities at seven different compound concentrations, and they represent the concentration of the compound at which the residual activity was 50%. IC50 values were obtained by plotting the residual enzyme activities against the applied inhibitor concentrations, fitting the experimental data to the 4-parameter Hill equation: Y=Bottom-Top-Bottom/1+10^logIC50-X×HillSlope , where X is the logarithm of the inhibitor concentration, and Y is the residual activity. The IC50 values were determined in three independent experiments. GraphPad Prism 8.2.0 (GraphPad Software, San Diego, CA, USA) was used for the fitting procedure.
(§3) The assay detects the phosphate formed in each enzyme reaction. To avoid any possibility of the compounds inhibiting the enzymes due to aggregation, a detergent (0.005% Triton-X114) was added to the test system.

S. aureus (ATCC 29,213) = experiment: Antibacterial assay, broth microdilution MIC; assay type: cell-based; settings: for MIC: Staphylococcus aureus
Method: (§4) Antimicrobial testing was performed by the broth microdilution method in 96-well plates following the Clinical and Laboratory Standards Institute guidelines and European Committee on Antimicrobial Susceptibility Testing recommendations (Clinical and Laboratory Standards Institute). Bacterial suspensions equivalent to 0.5 McFarland turbidity standard were diluted with cation-adjusted Mueller–Hinton broth with TES buffering (ThermoFisher Scientific), for a final inoculum of 10^5 CFU/ mL. Compounds dissolved in DMSO and the inoculum were mixed and incubated for 20 h at 35 °C. […] The MICs were determined against two reference bacterial strains, S. aureus (ATCC 29,213) and E. coli (ATCC 25,922). Tetracycline was used as the positive control on every assay plate, with MICs of 0.5 and 1 µg/mL for S. aureus and E. coli, respectively. All MICs were determined in three independent experiments.

E. coli (ATCC 25,922) = experiment: Antibacterial assay, broth microdilution MIC; assay type: cell-based; settings: for MIC: Escherichia coli
Method: as §4

E. coli MurF = E. coli MurF (Escherichia coli, UniProt P11880); experiment: MurF inhibition assay (Malachite green); assay type: biochemical; settings: for remaining activity at 100 µM: 0.25 h, residual activity at 100 µM compound, mean ± SD of three independent experiments, read-out: RA (%) @ 100 µM MurF
Method: as §1, §2, §3

E. coli MurC = E. coli MurC (Escherichia coli, UniProt P17952); experiment: MurC inhibition assay (Malachite green); assay type: biochemical; settings: 0.25 h, read-out: RA (%) @ 100 µM MurC
Method: as §1, §2, §3

E. coli MurD = E. coli MurD (Escherichia coli, UniProt P14900); experiment: MurD inhibition assay (Malachite green); assay type: biochemical; settings: 0.25 h, read-out: RA (%) @ 100 µM MurD
Method: as §1, §2, §3

[1] = residual activity at 100 µM compound, mean ± SD of three independent experiments
[2] = ATCC29, broth microdilution, 20 h at 35 °C, read-out: MIC S.aureus
[3] = ATCC25, broth microdilution, 20 h at 35 °C, read-out: MIC E.coli

E. coli MurE, sequence (P22188 whole entry): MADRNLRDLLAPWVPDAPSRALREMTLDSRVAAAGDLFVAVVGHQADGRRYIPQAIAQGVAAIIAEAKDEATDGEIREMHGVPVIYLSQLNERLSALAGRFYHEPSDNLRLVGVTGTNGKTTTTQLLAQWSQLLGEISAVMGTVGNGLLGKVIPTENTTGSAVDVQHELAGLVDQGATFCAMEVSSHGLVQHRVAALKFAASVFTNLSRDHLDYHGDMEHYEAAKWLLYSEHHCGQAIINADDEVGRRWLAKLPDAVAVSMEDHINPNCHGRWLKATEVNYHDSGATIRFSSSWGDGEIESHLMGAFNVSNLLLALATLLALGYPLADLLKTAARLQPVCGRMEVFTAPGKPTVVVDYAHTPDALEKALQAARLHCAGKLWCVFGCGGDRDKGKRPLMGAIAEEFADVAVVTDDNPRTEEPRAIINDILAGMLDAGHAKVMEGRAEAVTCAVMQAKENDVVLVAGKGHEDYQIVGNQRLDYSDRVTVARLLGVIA
E. coli MurC, sequence (P17952 whole entry): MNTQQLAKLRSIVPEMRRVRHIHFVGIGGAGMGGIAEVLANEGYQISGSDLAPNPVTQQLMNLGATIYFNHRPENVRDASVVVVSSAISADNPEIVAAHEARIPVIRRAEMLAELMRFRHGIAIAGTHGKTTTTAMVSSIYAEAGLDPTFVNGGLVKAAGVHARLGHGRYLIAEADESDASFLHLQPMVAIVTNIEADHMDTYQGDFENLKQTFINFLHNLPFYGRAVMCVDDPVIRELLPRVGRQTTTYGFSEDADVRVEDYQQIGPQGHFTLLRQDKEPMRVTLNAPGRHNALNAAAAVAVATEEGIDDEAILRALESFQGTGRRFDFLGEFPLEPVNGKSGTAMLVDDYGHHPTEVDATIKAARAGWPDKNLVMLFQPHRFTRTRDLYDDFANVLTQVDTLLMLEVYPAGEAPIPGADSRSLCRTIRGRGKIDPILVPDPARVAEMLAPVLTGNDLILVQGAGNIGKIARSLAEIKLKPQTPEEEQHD
E. coli MurF, sequence (P11880 whole entry): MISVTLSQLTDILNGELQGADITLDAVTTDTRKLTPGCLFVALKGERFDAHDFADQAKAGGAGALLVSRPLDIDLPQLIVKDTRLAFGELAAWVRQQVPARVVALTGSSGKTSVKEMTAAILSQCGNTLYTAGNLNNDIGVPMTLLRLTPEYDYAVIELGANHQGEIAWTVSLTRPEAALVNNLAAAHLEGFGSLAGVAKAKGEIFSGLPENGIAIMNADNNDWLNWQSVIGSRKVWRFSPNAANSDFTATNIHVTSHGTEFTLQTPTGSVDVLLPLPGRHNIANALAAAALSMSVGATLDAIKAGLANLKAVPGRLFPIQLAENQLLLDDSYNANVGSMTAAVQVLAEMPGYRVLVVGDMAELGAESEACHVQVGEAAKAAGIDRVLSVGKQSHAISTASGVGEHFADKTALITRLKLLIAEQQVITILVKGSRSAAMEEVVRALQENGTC
E. coli MurD, sequence (P14900 whole entry): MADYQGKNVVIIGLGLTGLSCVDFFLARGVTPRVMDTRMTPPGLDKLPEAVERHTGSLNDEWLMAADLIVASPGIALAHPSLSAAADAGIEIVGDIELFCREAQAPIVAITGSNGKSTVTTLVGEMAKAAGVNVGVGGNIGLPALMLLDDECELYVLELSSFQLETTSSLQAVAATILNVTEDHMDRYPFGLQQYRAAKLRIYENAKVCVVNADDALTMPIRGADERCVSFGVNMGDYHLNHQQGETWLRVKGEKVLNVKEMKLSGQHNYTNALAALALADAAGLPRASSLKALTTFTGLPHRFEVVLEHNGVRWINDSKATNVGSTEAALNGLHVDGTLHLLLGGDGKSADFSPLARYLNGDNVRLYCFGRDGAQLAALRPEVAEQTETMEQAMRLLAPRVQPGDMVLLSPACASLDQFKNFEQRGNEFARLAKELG

O=c1cc(-c2ccccc2)oc2cc(O)cc(O)c12 [Compound 17]
remaining activity at 100 µM (E. coli MurE; [1]): 83 ± 8%
MIC (S. aureus (ATCC 29,213); [2]): > 250 µM
MIC (E. coli (ATCC 25,922); [3]): > 250 µM
remaining activity at 100 µM (E. coli MurF): 100 ± 8%
remaining activity at 100 µM (E. coli MurC; [1]): 100 ± 10%
remaining activity at 100 µM (E. coli MurD; [1]): 71 ± 9%

COc1cc(OC)c2c(=O)cc(-c3ccc(OC)c(OC)c3)oc2c1 [Compound 19]
remaining activity at 100 µM (E. coli MurE; [1]): 100 ± 9%
MIC (S. aureus (ATCC 29,213); ATCC29, 20 h, read-out: MIC S.aureus): > 250 µM
MIC (E. coli (ATCC 25,922); ATCC25, 20 h, read-out: MIC E.coli): > 250 µM
remaining activity at 100 µM (E. coli MurF): 100 ± 9%
remaining activity at 100 µM (E. coli MurC; [1]): 100 ± 9%
remaining activity at 100 µM (E. coli MurD; [1]): 100 ± 10%

O=c1cc(-c2ccc(O)c(O)c2)oc2cc(OC3OC(CO)C(O)C(O)C3O)cc(O)c12 (centres unmarked) [Compound 15]
remaining activity at 100 µM (E. coli MurE; [1]): 100%
MIC (S. aureus (ATCC 29,213); [2]): > 250 µM
MIC (E. coli (ATCC 25,922); [3]): > 250 µM
remaining activity at 100 µM (E. coli MurF): 92 ± 9%
remaining activity at 100 µM (E. coli MurC; [1]): 100 ± 9%
remaining activity at 100 µM (E. coli MurD; [1]): 75 ± 6%

CN(C)[C@@H]1C(O)=C(C(N)=O)C(=O)[C@@]2(O)C(O)=C3C(=O)c4c(O)cccc4[C@@](C)(O)[C@H]3C[C@@H]12 [Tetracycline, reference compound]
MIC (S. aureus (ATCC 29,213); ATCC29, positive control on every assay plate, read-out: MIC S. aureus, positive control): 0.5 µg/mL
MIC (E. coli (ATCC 25,922); ATCC25, positive control on every assay plate, read-out: MIC E. coli, positive control): 1 µg/mL

O=c1c(OC2OC(CO)C(O)C(O)C2O)c(-c2ccc(O)c(O)c2)oc2cc(O)cc(O)c12 (centres unmarked) [Compound 9]
remaining activity at 100 µM (E. coli MurE; [1]): 100 ± 8%
MIC (S. aureus (ATCC 29,213); [2]): > 250 µM
MIC (E. coli (ATCC 25,922); [3]): > 250 µM
remaining activity at 100 µM (E. coli MurF): 90 ± 8%
remaining activity at 100 µM (E. coli MurC; [1]): 89 ± 8%
remaining activity at 100 µM (E. coli MurD; [1]): 100 ± 8%

COc1cc([C@@H]2[C@H]3CO[C@@]4(O)C(=O)[C@@H]2C=C([C@H]2Oc5cc(O)cc(O)c5C(=O)[C@@H]2O)[C@@H]34)ccc1O [Compound 24, silydianin]
remaining activity at 100 µM (E. coli MurE; [1]): 93 ± 9%
MIC (S. aureus (ATCC 29,213); [2]): > 250 µM
MIC (E. coli (ATCC 25,922); [3]): > 250 µM
remaining activity at 100 µM (E. coli MurF): 99 ± 7%
remaining activity at 100 µM (E. coli MurC; [1]): 100 ± 7%
remaining activity at 100 µM (E. coli MurD; [1]): 95 ± 9%

Oc1cc(O)c2c(c1)O[C@H](c1ccc(O)c(O)c1)[C@@H](O)C2 [Compound 22, (+)-catechin]
remaining activity at 100 µM (E. coli MurE; [1]): 88 ± 8%
MIC (S. aureus (ATCC 29,213); [2]): > 250 µM
MIC (E. coli (ATCC 25,922); [3]): > 250 µM
remaining activity at 100 µM (E. coli MurF): 100 ± 10%
remaining activity at 100 µM (E. coli MurC; [1]): 100 ± 10%
remaining activity at 100 µM (E. coli MurD; [1]): 93 ± 8%

O=c1c(O)c(-c2cc(O)c(O)c(O)c2)oc2cc(O)cc(O)c12 [Compound 12, myricetin]
remaining activity at 100 µM (E. coli MurE; [1]): 66 ± 7%
MIC (S. aureus (ATCC 29,213); [2]): > 250 µM
Inhibition of growth of S. aureus (in words) (S. aureus (ATCC 29,213); broth microdilution): inactive
MIC (E. coli (ATCC 25,922); [3]): > 250 µM
Inhibition of growth of E. coli (in words) (E. coli (ATCC 25,922); broth microdilution): inactive
IC50 (E. coli MurF; seven compound concentrations, 4-parameter Hill fit, three independent experiments): 139 ± 13 µM
remaining activity at 100 µM (E. coli MurC; [1]): 87 ± 8%
remaining activity at 100 µM (E. coli MurD; [1]): 87 ± 9%

O=c1c(O[C@@H]2O[C@H](CO)[C@@H](O)[C@H](O)[C@H]2O)c(-c2ccc(O)c(O)c2)oc2cc(O)cc(O)c12 [Compound 8]
remaining activity at 100 µM (E. coli MurE; [1]): 97 ± 8%
MIC (S. aureus (ATCC 29,213); [2]): > 250 µM
MIC (E. coli (ATCC 25,922); [3]): > 250 µM
remaining activity at 100 µM (E. coli MurF): 88 ± 9%
remaining activity at 100 µM (E. coli MurC; [1]): 95 ± 9%
remaining activity at 100 µM (E. coli MurD; [1]): 100 ± 9%

Cc1c(O)cc(O)c2c1O[C@H](c1ccccc1)CC2=O [Compound 4]
remaining activity at 100 µM (E. coli MurE; [1]): 100 ± 9%
MIC (S. aureus (ATCC 29,213); [2]): > 250 µM
MIC (E. coli (ATCC 25,922); [3]): > 250 µM
remaining activity at 100 µM (E. coli MurF): 88 ± 9%
remaining activity at 100 µM (E. coli MurC; [1]): 91 ± 9%
remaining activity at 100 µM (E. coli MurD; [1]): 97 ± 8%

COc1ccc([C@@H]2CC(=O)c3c(O)cc(O)cc3O2)cc1O [Compound 1]
remaining activity at 100 µM (E. coli MurE; [1]): 100 ± 10%
MIC (S. aureus (ATCC 29,213); [2]): > 250 µM
MIC (E. coli (ATCC 25,922); [3]): > 250 µM
remaining activity at 100 µM (E. coli MurF): 87 ± 8%
remaining activity at 100 µM (E. coli MurC; [1]): 100 ± 9%
remaining activity at 100 µM (E. coli MurD; [1]): 94 ± 9%

O=c1c(O)c(-c2ccccc2)oc2cc(O)cc(O)c12 [Compound 16]
remaining activity at 100 µM (E. coli MurE; [1]): 100 ± 10%
MIC (S. aureus (ATCC 29,213); [2]): 250 µM
Inhibition of growth of S. aureus (in words) (S. aureus (ATCC 29,213); broth microdilution): inhibit the growth
MIC (E. coli (ATCC 25,922); [3]): > 250 µM
remaining activity at 100 µM (E. coli MurF): 100 ± 10%
remaining activity at 100 µM (E. coli MurC; [1]): 100 ± 8%
remaining activity at 100 µM (E. coli MurD; [1]): 91 ± 7%

O=c1c(O)c(-c2ccc(O)c(O)c2)oc2cc(O)cc(O)c12 [Compound 14, Quercetin]
remaining activity at 100 µM (E. coli MurE): 28 ± 4%
MIC (S. aureus (ATCC 29,213); [2]): 250 µM
Inhibition of growth of S. aureus (in words) (S. aureus (ATCC 29,213); broth microdilution): inhibit the growth
MIC (E. coli (ATCC 25,922); [3]): > 250 µM
remaining activity at 100 µM (E. coli MurC): 41 ± 5%
remaining activity at 100 µM (E. coli MurD): 43 ± 6%
